Source: US8772463B2, “Fluorescent dye-labeled glucose bioprobe, synthesis method and usage thereof” (SNU R&DB Foundation, priority 2007, dated 2014)

Assays:
NIH/3T3 cells [1] = experiment: Cy3-Glc-α uptake in normal cells versus cancer cells, inverted fluorescent microscope; type: cell-based, murine
Procedure: (§1) 1×10^4 cells were cultured on a Lab-Tek glass chamber slide (Nalge Nunc International, Naperville, Ind., USA) in 35 mm cell culture dish. After 24 h, the cells were treated for each experimental purpose. Then, the medium was replaced with RPMI 1640 medium containing 12.5 μM of Cy3-Glc-α. The cells were exposed to Cy3-Glc-α for 40 min, then washed with PBS 3 times. Finally, the glass chamber slide was taken from culture dish and loaded on the fluorescence microscope (Axiovert 200, Carl Zeiss, Germany). Fluorescence images of 35-50 cells were taken by CCD camera (Axiocam MRm, Germany) and fluorescence intensity of each cell was measured by Axiovision (program for data analysis). An area as ROIs (regions of interest) which contains a cell in phase-contrast image was drawn using Axiovision. Axiovision analyzed CCD camera images and provided the digitized mean of fluorescence intensity in the ROIs that the present inventors had established. The present inventors subtracted the background intensity from the fluorescence intensity to get the fluorescence intensity value that a cell contained. With the method described above, the present inventors digitized fluorescence intensity and performed various experiments.
(2) Based on this observation, further studies in bioimaging and bioapplication were performed only with the α anomer as choice of the bioprobe. […]

NIH/3T3 cells [2] = experiment: FACS-based flow cytometric analysis of probe uptake with/without 11 mM D-glucose; type: cell-based, murine; conditions: probe 5 μM; glucose-depleted condition normalized to 100
Procedure: FACS (Fluorescence Activated Cell Sorting)-based flow cytometric analysis was used to compare cellular uptake efficiency in NIH/3T3 cells among the glucose probe [2-(N-Cy3-piperazinoethyl)]-α-D-glucose (GB2-Cy3), synthesized in Example 2, the conventional fluorescent glucose probe 2-NBDG and the glucose probe Cy3-Glc-α, synthesized in Example 1.
NIH/3T3 cells were cultured on 10 cm cell culture dishes and transferred in a volume of 3×10^5 cells into each FACS tube (5 mL, BD). They were washed once with cold PBS before incubation at 37° C. for 30 min in 11 mM D-glucose-containing PBS or glucose-free PBS in the presence of the bioprobe [GB2-Cy3 (5 μM), 2-NBDG (5 μM or 50 μM) or Cy3-Glc-α (5 μM)]. Cells that were incubated without the bioprobes were used as a negative control. After being washed with cold PBS, 1×10^4 NIH/3T3 cells were analyzed on FACSCalibur™ (FACS-based flow cytometer). GBs-Cy3 was detected by FL2 channels. Raw data of 1×10^4 cells are shown in histograms, with the mean values thereof given in the graph of FIG. 21.

A549 cells = experiment: Direct competition of Cy3-Glc-α uptake with D-glucose / L-glucose; type: cell-based, human; conditions: 37° C.
Procedure: as §1, with “experiments. […]” for “experiments.”

C[N+]1=C(/C=C/C=C2/N(CCCCC(=O)NCCOCCOCCNCCOC3OC(CO)C(O)C(O)C3O)c3ccccc3C2(C)C)C(C)(C)c2ccccc21 [Cy3-Glc-α, [2-(N-Cy3-3,6-dioxaoctane-1,8-diaminoethyl)]-α-D-glucose]
Cy3-Glc-α uptake in NIH/3T3 relative to that of A549 cells (NIH/3T3 cells [1]): 30%
reduction in cellular uptake due to 11 mM D-glucose (NIH/3T3 cells [2]): about 50%
uptake versus L-glucose in the medium (A549 cells; 50 mM L-glucose): not influenced by the concentration of L-glucose
uptake versus concentration of D-glucose in the medium (A549 cells; RPMI 1640 lacking glucose, 10 mM or 50 mM D-glucose): decreased as the concentration of D-glucose in the medium increased
